12 compounds from patent US9102642B2, “Herbicidally active cyclic diones and derivatives thereof, processes for their preparation, compositions, and methods of controlling weeds” (Syngenta Limited, priority 2009, dated 2015) can be followed below.

Common to all, as to assay: Pre-emergence herbicidal activity, glasshouse pot test
Common to all, as to assay type: in vivo
What all share (conditions): 312 h, Rate 250 g/ha, evaluated after 13 days, 100=total damage to plant, 0=no damage to plant

The test system of experiment [1] is Alopecurus myosuroides (ALOMY). The protocol:
(§1) Seeds of a variety of test species were sown in standard soil in pots. After cultivation for one day (pre-emergence) or after 8 days cultivation (post-emergence) under controlled conditions in a glasshouse (at 24/16° C., day/night; 14 hours light; 65% humidity), the plants were sprayed with an aqueous spray solution derived from the formulation of the technical active ingredient in acetone/water (50:50) solution containing 0.5% Tween 20 (polyoxyethelyene sorbitan monolaurate, CAS RN 9005-64-5). The test plants were then grown in a glasshouse under controlled conditions in a glasshouse (at 24/16° C., day/night; 14 hours light; 65% humidity) and watered twice daily. After 13 days for pre and post-emergence, the test was evaluated (100=total damage to plant; 0=no damage to plant). Test Plants: Lolium perenne (LOLPE), Alopecurus myosuroides (ALOMY), Echinochloa crus-galli (ECHCG), and Avena fatua (AVEFA). Pre-Emergence Activity

Another experiment has as its system Avena fatua (AVEFA). Here is the method: as §1
Experiment [2] has as its system Echinochloa crus-galli (ECHCG). Here is the method: as §1
The subject of a further experiment is Lolium perenne (LOLPE). Here is the method: as §1

Each structure is given as a SMILES string.

Broadly, the pest or weed control is how far the test organism was held down. Low values mean weak suppression, high ones strong suppression. With `CCc1cc(Oc2ccc(Cl)cc2F)ccc1C1=C(O)C(C)(C)OC(C)(C)C1=O` [Compound A-3], the pest or weed control at 250 g/ha came to 20% in experiment [1], 10% with Avena fatua (AVEFA), 20% in experiment [2] and 20% in the experiment on Lolium perenne (LOLPE).
Turning to `CCc1cc(Oc2ccc(C(F)(F)F)cn2)ccc1C1=C(O)C(C)(C)OC(C)(C)C1=O` [Compound A-9, 4-[4-(5-trifluoromethylpyridin-2-yloxy)-2-ethylphenyl]-2,2,6,6-tetramethylpyran-3,5-dione], the pest or weed control at 250 g/ha was found to be 20% in experiment [1], 0% with Avena fatua (AVEFA), 30% in experiment [2] and 60% in the experiment on Lolium perenne (LOLPE).
Consider `Cc1cc(Oc2cnc3cc(Cl)ccc3n2)cc(C)c1C1=C(O)C(C)(C)OC(C)(C)C1=O` [Compound A-14], for which the pest or weed control at 250 g/ha in experiment [1] was found to be 30%; in the experiment with Avena fatua (AVEFA), 10%; in experiment [2], 20%; in the experiment on Lolium perenne (LOLPE), 50%.
On to `CCc1cc(Oc2ncc(Cl)cc2F)ccc1C1=C(O)C(C)(C)OC(C)(C)C1=O` [Compound A-8], for which the pest or weed control at 250 g/ha in experiment [1] came out at 40%; in the experiment on Avena fatua (AVEFA), 30%; in experiment [2] it was 100%; in the experiment with Lolium perenne (LOLPE) it was 100%.
Turning to `CCc1cc(Oc2ccc(Cl)cc2Cl)ccc1C1=C(O)C(C)(C)OC(C)(C)C1=O` [Compound A-2], the pest or weed control at 250 g/ha came to 20% in experiment [1], 0% in the experiment on Avena fatua (AVEFA), 50% in experiment [2] and 70% in the experiment on Lolium perenne (LOLPE).
`Cc1cc(Oc2ncccc2Cl)cc(C)c1C1=C(O)CCCC1=O` [Compound A-16]: the pest or weed control at 250 g/ha (in experiment [1]; in the experiment on Avena fatua (AVEFA); in experiment [2]; in the experiment on Lolium perenne (LOLPE)) was 0% in each case.
For the compound `CCc1cc(Oc2ccc(Cl)c(F)c2)ccc1C1=C(O)C(C)(C)OC(C)(C)C1=O` [Compound A-7, 4-[4-(4-chloro-3-fluorophenoxy)-2-ethylphenyl]-2,2,6,6-tetramethylpyran-3,5-dione], the pest or weed control at 250 g/ha in experiment [1] turned out to be 40%; with Avena fatua (AVEFA), 20%; in experiment [2] it was 60%; in the experiment on Lolium perenne (LOLPE), 80%.
In the same order, the values of `CCc1cc(Oc2cnc3cc(Cl)ccc3n2)ccc1C1=C(O)C(C)(C)OC(C)(C)C1=O` [Compound A-10, 4-[4-(6-chloroquinoxalin-2-yloxy)-2-ethylphenyl]-2,2,6,6-tetramethylpyran-3,5-dione] are 70%, 90%, 100% and 100%.
Regarding `CCc1cc(Oc2ccc(Cl)cc2)ccc1C1=C(O)C(C)(C)OC(C)(C)C1=O` [Compound A-4], the pest or weed control at 250 g/ha came out at 20% in experiment [1], 20% with Avena fatua (AVEFA), 60% in experiment [2] and 60% with Lolium perenne (LOLPE).
Consider `CCc1cc(Oc2ccc(F)cc2)ccc1C1=C(O)C(C)(C)OC(C)(C)C1=O` [Compound A-6], for which the pest or weed control at 250 g/ha worked out at 60% in experiment [1], 30% with Avena fatua (AVEFA), 100% in experiment [2] and 100% with Lolium perenne (LOLPE).
As to `CCc1cc(Oc2ccc(Br)cc2)ccc1C1=C(O)C(C)(C)OC(C)(C)C1=O` [Compound A-5], the pest or weed control at 250 g/ha in experiment [1] was found to be 10%; with Avena fatua (AVEFA) it was 10%; in experiment [2], 40%; with Lolium perenne (LOLPE), 30%.
For `CCc1cc(Oc2ncc(C(F)(F)F)cc2Cl)ccc1C1=C(O)C(C)(C)OC(C)(C)C1=O` [Compound A-11], the pest or weed control at 250 g/ha in experiment [1] came out at 90%; in the experiment with Avena fatua (AVEFA), 90%; in experiment [2], 100%; with Lolium perenne (LOLPE), 100%.
